Results taken from the NIST ThermoML archive (doi:10.1021/acs.jced.7b00429).
Numbers after ± are expanded uncertainties.

Assay: xn = mol fraction of the nth substance listed
Details: 100 kPa, Liquid; for viscosity: Falling or rolling sphere viscometry; for speed of sound: Frequency=3 MHz, Single path-length method; for mass density: Vibrating tube method

CCn1cc[n+](C)c1.O=S(=O)([O-])C(F)(F)F [1-ethyl-3-methylimidazolium trifluoromethanesulfonate] + CC#N
Details | mass density [kg/m3] | speed of sound [m/s] | viscosity [mPa·s]
298.15 K, x1 = 0.1026 | 964.8 ± 2.1 | 1309.2 ± 10 | 0.85 ± 0.26
298.15 K, x1 = 0.2053 | 1080.98 ± 2.1 | 1337.4 ± 10 | 1.88 ± 0.56
298.15 K, x1 = 0.3044 | 1158.48 ± 2.1 | 1360.9 ± 10 | 2.99 ± 0.9
298.15 K, x1 = 0.3948 | 1210.19 ± 2.1 | 1377.9 ± 10 | 4.51 ± 1.4
298.15 K, x1 = 0.498 | 1256.19 ± 2.1 | 1394.4 ± 10 | 7.44 ± 2.2
298.15 K, x1 = 0.595 | 1289.82 ± 2.2 | 1408 ± 10 | 10.9 ± 3.3
298.15 K, x1 = 0.6936 | 1317.8 ± 2.3 | 1418.6 ± 10 | 15.92 ± 4.8
298.15 K, x1 = 0.801 | 1342.54 ± 2.4 | 1427.1 ± 10 | 24.05 ± 7.2
298.15 K, x1 = 0.9005 | 1362.36 ± 2.4 | 1432.6 ± 10 | 33.72 ± 10
298.15 K, x1 = 1 | 1379.91 ± 2.5 | 1436 ± 10 | 45.67 ± 14
303.15 K, x1 = 0.1026 | 959.72 ± 2.1 | 1292 ± 10 | 0.8 ± 0.24
303.15 K, x1 = 0.2053 | 1076.24 ± 2.1 | 1321.9 ± 10 | 1.82 ± 0.55
303.15 K, x1 = 0.3044 | 1153.77 ± 2.1 | 1346.7 ± 10 | 2.74 ± 0.82
303.15 K, x1 = 0.3948 | 1205.75 ± 2.1 | 1364.5 ± 10 | 4.13 ± 1.2
303.15 K, x1 = 0.498 | 1251.68 ± 2.1 | 1381.5 ± 10 | 6.64 ± 2
303.15 K, x1 = 0.595 | 1285.38 ± 2.2 | 1395.5 ± 10 | 9.46 ± 2.8
303.15 K, x1 = 0.6936 | 1313.46 ± 2.3 | 1406.6 ± 10 | 13.8 ± 4.1
303.15 K, x1 = 0.801 | 1338.3 ± 2.3 | 1415.2 ± 10 | 20.32 ± 6.1
303.15 K, x1 = 0.9005 | 1358.19 ± 2.4 | 1421.3 ± 10 | 27.94 ± 8.4
303.15 K, x1 = 1 | 1375.71 ± 2.5 | 1425.4 ± 10 | 38.31 ± 12
308.15 K, x1 = 0.1026 | 954.64 ± 2.1 | 1274.9 ± 10 | 0.75 ± 0.23
308.15 K, x1 = 0.2053 | 1071.2 ± 2.1 | 1306.5 ± 10 | 1.65 ± 0.5
308.15 K, x1 = 0.3044 | 1149.07 ± 2.1 | 1332.5 ± 10 | 2.52 ± 0.76
308.15 K, x1 = 0.3948 | 1200.93 ± 2.1 | 1351.3 ± 10 | 3.76 ± 1.1
308.15 K, x1 = 0.498 | 1247.19 ± 2.1 | 1368.7 ± 10 | 5.95 ± 1.8
308.15 K, x1 = 0.595 | 1280.97 ± 2.2 | 1383.2 ± 10 | 8.41 ± 2.5
308.15 K, x1 = 0.6936 | 1309.13 ± 2.3 | 1394.7 ± 10 | 12.08 ± 3.6
308.15 K, x1 = 0.801 | 1334.18 ± 2.3 | 1403.4 ± 10 | 17.54 ± 5.3
308.15 K, x1 = 0.9005 | 1354.05 ± 2.4 | 1409.7 ± 10 | 23.87 ± 7.2
308.15 K, x1 = 1 | 1371.51 ± 2.5 | 1414.3 ± 10 | 32.38 ± 9.7
313.15 K, x1 = 0.1026 | 949.54 ± 2.1 | 1257.9 ± 10 | 0.72 ± 0.22
313.15 K, x1 = 0.2053 | 1066.32 ± 2.1 | 1291.1 ± 10 | 1.54 ± 0.46
313.15 K, x1 = 0.3044 | 1144.37 ± 2.1 | 1318.3 ± 10 | 2.34 ± 0.7
313.15 K, x1 = 0.3948 | 1196.39 ± 2.1 | 1338.2 ± 10 | 3.46 ± 1
313.15 K, x1 = 0.498 | 1242.71 ± 2.1 | 1356 ± 10 | 5.37 ± 1.6
313.15 K, x1 = 0.595 | 1276.68 ± 2.2 | 1371.1 ± 10 | 7.51 ± 2.3
313.15 K, x1 = 0.6936 | 1304.82 ± 2.2 | 1382.9 ± 10 | 10.66 ± 3.2
313.15 K, x1 = 0.801 | 1330.05 ± 2.3 | 1391.6 ± 10 | 15.27 ± 4.6
313.15 K, x1 = 0.9005 | 1349.89 ± 2.4 | 1398.1 ± 10 | 20.58 ± 6.2
313.15 K, x1 = 1 | 1367.36 ± 2.5 | 1403 ± 10 | 27.68 ± 8.3
318.15 K, x1 = 0.1026 | 944.58 ± 2.1 | 1241 ± 10 | 0.68 ± 0.2
318.15 K, x1 = 0.2053 | 1061.52 ± 2.1 | 1275.8 ± 10 | 1.42 ± 0.43
318.15 K, x1 = 0.3044 | 1139.57 ± 2.1 | 1304.3 ± 10 | 2.16 ± 0.65
318.15 K, x1 = 0.3948 | 1191.77 ± 2.1 | 1325.1 ± 10 | 3.17 ± 0.95
318.15 K, x1 = 0.498 | 1238.2 ± 2.1 | 1343.4 ± 10 | 4.87 ± 1.5
318.15 K, x1 = 0.595 | 1272.32 ± 2.2 | 1359 ± 10 | 6.75 ± 2
318.15 K, x1 = 0.6936 | 1300.45 ± 2.2 | 1371.3 ± 10 | 9.46 ± 2.8
318.15 K, x1 = 0.801 | 1325.89 ± 2.3 | 1380.2 ± 10 | 13.39 ± 4
318.15 K, x1 = 0.9005 | 1345.74 ± 2.4 | 1387.1 ± 10 | 17.89 ± 5.4
318.15 K, x1 = 1 | 1363.21 ± 2.5 | 1392.7 ± 10 | 23.86 ± 7.2
323.15 K, x1 = 0.1026 | 939.47 ± 2.1 | 1224.1 ± 10 | 0.65 ± 0.2
323.15 K, x1 = 0.2053 | 1056.45 ± 2.1 | 1260.7 ± 10 | 1.38 ± 0.41
323.15 K, x1 = 0.3044 | 1134.77 ± 2.1 | 1290.5 ± 10 | 2.01 ± 0.6
323.15 K, x1 = 0.3948 | 1187.31 ± 2.1 | 1312.2 ± 10 | 2.91 ± 0.87
323.15 K, x1 = 0.498 | 1233.78 ± 2.1 | 1330.9 ± 10 | 4.43 ± 1.3
323.15 K, x1 = 0.595 | 1267.96 ± 2.2 | 1347.1 ± 10 | 5.96 ± 1.8
323.15 K, x1 = 0.6936 | 1296.17 ± 2.2 | 1359.7 ± 10 | 8.27 ± 2.5
323.15 K, x1 = 0.801 | 1321.8 ± 2.3 | 1368.6 ± 10 | 11.66 ± 3.5
323.15 K, x1 = 0.9005 | 1341.58 ± 2.4 | 1375.7 ± 10 | 15.49 ± 4.6
323.15 K, x1 = 1 | 1359.07 ± 2.5 | 1381.7 ± 10 | 20.75 ± 6.2
